Experimental data reported in US11925611B2, “Use of ZT-1A and analogs thereof to prevent and/or treat neurodegenerative and neurocognitive disorders” (United States Government as Represented by the Department …, priority 2021, dated 2024).
Read-outs that look alike come from different tables or passages of the source.

What was measured:
BCAS mice = experiment: Immunostaining of brains of BCAS mice (MBP, APC, NG2, caspase 3/Olig2, GFAP, tNKCC1); type: in vivo, C57BL/6J mice
Text: Clinically, most patients with intracranial atherosclerotic stenosis suffer from permanent stenosis without occlusion. Therefore, to mimic clinical atherosclerotic stenosis with permanent carotid artery (CCA) hypoperfusion, a modified BCAS model was adapted by ligating the CCA guided with a 30 gauge needle (0.31 mm diameter) in the right CCA and a 33 gauge needle (0.21 mm diameter) in the left CCA with a 4-0 silk suture. […] Next, changes of total NKCC1 (tNKCC1) protein expression were surveyed in different brain regions at 2 and 4 wks post-surgery by immunofluorescence staining (IF). […] Therefore, in the rest of the study, the investigation was focused on its association to white matter GFAP^+ astrogliosis and lesion of CC and external capsul (EC) tracks. […] However, by 2 wks post-BCAS surgery, tNKCC1 immunofluorescence intensity in the CC tracks was increased by ˜3 folds (p<0.05), and further elevated to ˜6 folds by 4 wks (p<0.05, arrowhead). Data are mean±SEM, n=4, *p<0.05, **p<0.01. […] The upregulation of tNKCC1 and GFAP protein expression in the CC is correlated, with a Pearson's correlation coefficient of r=0.9 (p<0.001). […] In contrast, no elevated tNKCC1 protein was detected either in Iba1^+ microglia/macrophages or in Olig2+ oligodendrocytes (OL) at 4 wks post-BCAS surgery (FIG. 1D). Without wishing to be bound by theory, these findings indicate that upregulation of NKCC1 expression and activity in reactive astrocytes may play a critical role in white matter inflammation, OL death, and demyelination after BCAS. Next, whether administration of SPAK inhibitor ZT-1a reduces WML and improves cognitive functions was examined. Starting at 14 days after BCAS surgery in mice (male), either vehicle DMSO (Veh, 2 ml/kg) or ZT-1a (5 mg/kg, every 72 h, i.p) was administered every 3 days, until they were sacrificed at day 35 post-BCAS (FIG. 3A). […] Motor functions are similar in all groups and average swimming speeds were not different in the Sham-, Veh- and ZT-1a-treated mice. Data are mean±SEM, n=6 (Sham and ZT-1a) or 5 (Veh), *p<0.01 vs. sham, *p<0.05 vs. Veh. After completion of the neurological function tests in the Veh-control and ZT-1a-treated BCAS cohort mice (as shown in FIG. 3A and FIG. 3B), ex-vivo brains were harvested for MRI DTI (diffusion tensor imaging) analysis of WML at 4 wks post-BCAS detected by DTI. The fractional anisotropy (FA), radial diffusivity (RD), and mean diffusivity (MD) of the CC and EC tracks were analyzed. Representative images of the DEC maps in FIG. 4A show severe loss of axonal fibers (arrowheads) in the CC and left EC of the Veh-control brains. […] These observations are consistent with changes of FA, RD, and MD values (FIG. 4B). […] Then MBP expression levels were measured in these brains by immunostaining. […] Taken together, these findings illustrated that post-BCAS administration of SPAK inhibitor ZT-1a reduces BCAS-induced white matter demyelination. […] To test this, immunostaining of the same cohort of brains (of FIG. 4A-D) was conducted to analyze oligodendrocyte precursor cell (OPC) counts (NG2^+), differentiated mature OLs (APC^+), and apoptotic OLs (caspase 3^+Olig2^+) in the Sham, Veh-, and ZT-1a-treated BCAS mice. […] Referring to FIG. 5A and FIG. 5B, representative double immunofluorescence images of APC (mature oligodendrocyte marker)/NG2 (oligodendrocyte precursor cell marker) in CC (FIG. 5A) and EC (FIG. 5B) of Sham, Veh-, and ZT-1a-treated brains at 4-wk after BCAS surgery. Nuclei were counterstained with DAPI. Quantitative analyses of APC^+/DAPI^+ cells and NG2^+/DAPI^+ cells is shown. Data are mean±SEM, n=4, *p<0.05, […]. Referring to FIG. 5C, representative double immunofluorescence images of Caspase 3^+/Olig2^+ cells in CC of Sham, Veh-, and ZT-1a-treated brains. Data are mean±SEM, n=4, *p<0.05. Without wishing to be bound by theory, it is speculated that ZT-1a treatment preserves white matter integrity via reducing reactive astrocyte-mediated inflammation in white matter tracks. […]

KCC3 = experiment: Cellular inhibition of KCC3 phosphorylation (pThr991, pThr1048); type: cell-based; conditions: n = 3, — = no inhibition
Text: (§1) 8. Cellular Activity Profile of Inhibitors with the Salicyclic Amide
(§2) A list of the compounds evaluated for their ability to inhibit phosphorylation of SPAK/NKCC1/KCC3 activity is illustrated in Table 1 below.

NKCC1 = experiment: Cellular inhibition of NKCC1 phosphorylation (pThr203); type: cell-based; conditions: Isotonic conditions; n = 3; — = no inhibition; read-out: NKCC1 pThr203 (μM) Iso
Text: as §1, §2

SPAK = SPAK (Homo sapiens, UniProt Q9UEW8); experiment: Cellular inhibition of SPAK phosphorylation (pSer373); type: cell-based; conditions: 50% inhibition of phosphorylation, n = 3, — = no inhibition
Text: as §1, §2

[1] = 4 wks post-BCAS, vs Veh-controls

IC50 (KCC3; Hypotonic conditions, read-out: KCC3 pThr1048 (μM) hypo): 3 µM
IC50 (KCC3; Isotonic conditions, read-out: KCC3 pThr991 (μM) Iso): 3 µM
IC50 (KCC3; Isotonic conditions, read-out: KCC3 pThr1048 (μM) Iso): 1 µM
IC50 (NKCC1): 1 µM
IC50 (SPAK; Hypotonic conditions, read-out: SPAK pSer373 (μM) hypo): 3 µM
IC50 (SPAK; Isotonic conditions, read-out: SPAK pSer373 (μM) Iso): 1 µM
Compound: Cc1cc(C(C#N)c2ccc(Cl)cc2)c(Cl)cc1NC(=O)c1cc(Cl)ccc1O (stereo not drawn) [1a (ZT-1a)]
decrease in GFAP expression in CC (BCAS mice; 4 weeks after BCAS, n=4): ~50%
decrease in tNKCC1 expression in CC (BCAS mice; 4 weeks after BCAS, n=4): ~60%
APC+ cell counts (mature OLs) in the CC and EC tracts (BCAS mice; [1]): significantly higher
NG2+ cell counts (OPC) in the CC and EC tracts (BCAS mice; [1]): significantly higher
caspase 3+ OLs cell counts in CC (BCAS mice; [1]): less
MBP protein expression in the CC and EC tracks (BCAS mice; 4 wks post-BCAS, vs Veh-treated BCAS brains, p<0.05): less MBP loss
